Measurements: US20250282714A1, “COMPOSITIONS FOR AND METHODS OF MODULATING RNA STABILITY” (Duke University, priority 2022, published 2025)

System: MALAT1 triple helix
Assay: RiboGreen indicator displacement assay (IDA)
Format: binding, human
Details: RiboGreen IDA
Experimental: The protocol was adapted from a previously reported procedure. (Donlic A, et al. (2020) Nucleic Acids Res. 48(14):7653-7664). A serial dilution of the MALAT1 triple helix RNA was performed in HEPES buffer (20 mM HEPES-KOH, 52.6 mM KCl, 0.1 mM MgCl2, pH=7.4) in a 96 well plate in triplicate. […] of each dilution were transferred to a 384 well plate followed by […] of a 500 nM solution of RiboGreen dye in the same buffer (Invitrogen™). The plates were excited at 487 nm (8 nm slit) and emission was recorded at 530 nm (8 nm slit, focal height 11.3 mm) using a CLARIOstar plate reader (BMG labtech). The affinity of the dye for the RNA construct was determined by fitting the raw fluorescence in GraphPad Prism version 8.3.1 for Macintosh (GraphPad Software, La Jolla California USA, (www.graphpad.com)) by fitting to the Log[Agonist] vs. response—variable slope model that using Equation (1) below.
where Y is normalized % change in fluorescence intensity, X is RNA concentration, Bottom is lowest fluorescence % change and Top is highest fluorescence % change. Affinity of the dye for the RNA construct was used as the ideal RNA concentration (174 nM) for small molecule titrations.
A serial dilution of small molecule (0, 0.5 μM, 1.0 μM, 2.5 μM, 5 μM, 7.5 μM, 10.0 μM, 12.5 μM, 25 μM, 50 µM, 75 μM, 100 μM, 125 μM, 150 μM, 250 μM, 500 µM) was performed in HEPES buffer (20 mM HEPES-KOH, 52.6 mM KCl, 0.1 mM MgCl2, pH=7.4) in a 96 well plate in triplicate. Then, 8 μL of each dilution were transferred to a 384 well plate, followed by 8 μL of a 174 nM solution of MALAT1 RNA and […] of RiboGreen™ (Invitrogen™). The RNA was previously annealed by heating to 95° C. for 5 minutes and cooling to 0° C. on ice for 30 minutes. The 384 well plates were shaken for 5 minutes, centrifuged at 4000 rpm for 1 minute, and incubated in the dark for 20 minutes. The plates were excited at 487 nm (8 nm slit) and emission was read at 525 nm (8 nm slit, focal height […]) using a CLARIOstar plate reader (BMG Labtech). Percent fluorescence indicator displacement (% FID) was calculated by subtracting and, subsequently, dividing by the blank wells with RNA-dye complex and no small molecule as shown in Equation (2).
Where Fo is the fluorescence of the blank well with RNA+dye and no small molecule and F is the fluorescence of the well with all three components (RNA+dye+small molecule).
Each technical triplicate was averaged, and the resulting FID values were averaged between three independent experiments. The binding curve and Log (CD50) value was obtained by using a non-linear fit curve (Log[Agonist] vs. response) with variable slope at four parameters (GraphPad Prism Software version for Macintosh 8.3.1, La Jolla, California, USA (www.graphpadprism.com)) as shown in Equation 1. Reported values are averages of three independent experiments=standard deviation.
Given the structural differences between secondary and tertiary structures, where more continuous and complex base-pairing occurs, the design and optimization of an RNA triple helix IDA amenable to HTS was the first focused on. The utility of RiboGreen™ dye was confirmed as an indicator. The RiboGreen™ structure is proprietary, and stoichiometry is thus unconfirmed. Upon assay optimization, the 21-member library was screened using a 16-point titration in three independent replicates (FIG. 2A, FIG. 12A-FIG. 12U).

`N=C(NCc1ccccc1)c1cccc(/N=N/Nc2cccc(C(=N)NCc3ccccc3)c2)c1` [DMZ-M4] was tested. Which “affinity for the MALAT1 triple helix (in words)” value did it give?
The value was “mediocre affinity”.
